# Measurements from patent publication US20240207427A1, “SELECTIVE DRUG RELEASE FROM INTERNALIZED CONJUGATES OF BIOLOGICALLY ACTIVE COMPOUNDS” (priority 2021, published 2024).
# Read-outs that look alike come from different tables or passages of the source.
# Experiments:
# Format in all cases: cell-based
# [1] = tested on: anaplastic large cell lymphoma cells (Karpas299); experiment: In vitro potency (CellTiter-Glo, 96 h), Karpas299; conditions: Homo sapiens, KARPAS-299, 96 h
# How it was run: (§1)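 Growth inhibition after 96 h at 37 °C with test article, measured by luminescence; cells in RPMI 1640, 20% FBS.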
# [2] = tested on: breast cancer cells (MDA-MB-231); experiment: In vitro potency (CellTiter-Glo, 96 h), MDA-MB-231; conditions: Homo sapiens, MDA-MB-231, 96 h
# How it was run: as §1
# [3] = tested on: non-small-cell lung cancer cells (Calu1); experiment: In vitro potency (CellTiter-Glo, 96 h), Calu1; conditions: Homo sapiens, Calu-1, 96 h, read-out: Calu1 IC50
# How it was run: as §1
# [4] = tested on: Hodgkin's lymphoma cells (L540cy); experiment: In vitro potency (CellTiter-Glo, 96 h), L540cy
# How it was run: as §1
# [5] = tested on: Ls174T cells; experiment: In vitro potency (CellTiter-Glo, 96 h), Ls174T; conditions: Homo sapiens, 96 h, 96 h
# How it was run: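 Cells in log-phase growth seeded 24 h in RPMI 1640 with 20% FBS, then exposed to serially diluted ADC or CPT free drug for 96 h at 37 °C. Growth inhibition read by CellTiter-Glo luminescence; IC50 reported in ng/mL or nmol/L.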
# [6] = tested on: anaplastic large cell lymphoma cells (DEL); experiment: In vitro potency (CellTiter-Glo, 96 h), DEL
# How it was run: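 Log-phase cells were seeded for 24 h in RPMI 1640 with 20% FBS, then exposed to serially diluted antibody-drug conjugates or free camptothecin drug for 4 days at 37 °C. Growth inhibition was read by luminescence, and IC50 values were reported in ng/mL and nmol/L.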
# [7] = tested on: acute myeloid leukemia cells (MOLM-13); experiment: In vitro potency (CellTiter-Glo, 96 h), MOLM-13; conditions: Homo sapiens, MOLM-13, 96 h
# How it was run: as §1
# [8] = tested on: pancreatic cancer cells (BxPC3); experiment: In vitro potency (CellTiter-Glo, 96 h), BxPC3; conditions: Homo sapiens, BXPC-3, 96 h
# How it was run: as §1
# [9] = tested on: renal carcinoma cells (786-O); experiment: In vitro potency (CellTiter-Glo, 96 h), 786-O; conditions: Homo sapiens, 786-0, 96 h
# How it was run: as §1
# [10] = tested on: B-lymphocyte cancer cells (SU-DHL4); experiment: In vitro potency (CellTiter-Glo, 96 h), SU-DHL-4; conditions: Homo sapiens, SU-DHL-4, 96 h
# How it was run: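 Four-day continuous exposure at 37 °C to serially diluted ADC or free camptothecin payload, in RPMI 1640 with 20% FBS after 24 h pre-plating. Luminescent signal gave IC50 (ng/mL; nmol/L).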
# [11] = tested on: anaplastic large cell lymphoma cells (DELBVR); experiment: In vitro potency (CellTiter-Glo, 96 h), DELBVR
# How it was run: as §1
# [12] = tested on: melanoma cells (A2058); experiment: In vitro potency (CellTiter-Glo, 96 h), A2058; conditions: Homo sapiens, A2058, 96 h, read-out: A2058 IC50
# How it was run: as §1
# [13] = Table 28, CPT free drugs, anaplastic large cell lymphoma cells Karpas299, 96 h, CellTiter-Glo, read-out: Karpas299 IC50
# [14] = Table 28, CPT free drugs, breast cancer cells MDA-MB-231, 96 h, CellTiter-Glo, read-out: MDAMB231 IC50
# [15] = Table 28, CPT free drugs, Hodgkin's lymphoma cells L540cy, CellTiter-Glo, read-out: L540cy IC50
# [16] = Table 28, CPT free drugs, Ls174T cells, CellTiter-Glo, read-out: Ls174T IC50
# [17] = Table 28, CPT free drugs, anaplastic large cell lymphoma cells DEL, CellTiter-Glo, read-out: DEL IC50
# [18] = Table 28, CPT free drugs, acute myeloid leukemia cells MOLM-13, 96 h, CellTiter-Glo, read-out: MOLM-13 IC50
# [19] = Table 28, CPT free drugs, pancreatic cancer cells BxPC3, 96 h, CellTiter-Glo, read-out: BxPC3 IC50
# [20] = Table 28, CPT free drugs, renal carcinoma cells 786-O, 96 h, CellTiter-Glo, read-out: 786-O IC50
# [21] = Table 28, CPT free drugs, B-lymphocyte cancer cells SU-DHL4, 96 h, CellTiter-Glo, read-out: SU-DHL-4 IC50
# [22] = Table 28, CPT free drugs, anaplastic large cell lymphoma cells DELBVR, CellTiter-Glo, read-out: DELBVR IC50
# [23] = Table 28, CPT free drugs, melanoma cells A2058, 96 h, CellTiter-Glo
# [24] = read-out: Karpas299 IC50, camptothecin free drug, 96 h
# [25] = read-out: MDAMB231 IC50, camptothecin free drug, 96 h
# [26] = read-out: L540cy IC50, camptothecin free drug, 96 h
# [27] = LS174T, read-out: Ls174T IC50, camptothecin free drug, 96 h
# [28] = read-out: DEL IC50, camptothecin free drug, 96 h
# [29] = read-out: MOLM-13 IC50, camptothecin free drug, 96 h
# [30] = read-out: BxPC3 IC50, camptothecin free drug, 96 h
# [31] = read-out: 786-O IC50, camptothecin free drug, 96 h
# [32] = read-out: SU-DHL-4 IC50, camptothecin free drug, 96 h
# [33] = read-out: DELBVR IC50, camptothecin free drug, 96 h
Compound,IC50 [3],IC50 [12],"IC50 [1, 24]","IC50 [2, 25]","IC50 [4, 26]","IC50 [5, 27]","IC50 [6, 28]","IC50 [7, 29]","IC50 [8, 30]","IC50 [9, 31]","IC50 [10, 32]","IC50 [11, 33]",further results
"CC[C@@]1(O)C(=O)OCc2c1cc1n(c2=O)Cc2c-1nc1cc(F)c(C)c(C=C(C)C)c1c2CN [Compound 6, (S)-11-(aminomethyl)-4-ethyl-8-fluoro-4-hydroxy-9-methyl-10-(2-methylprop-1-en-1-yl)-1,12-dihydro-14H-pyrano[3′,4′:6,7]indolizino[1,2-b]quinoline-3,14(4H)-dione]",17 nM,5 nM,–,–,–,–,–,–,–,–,–,–,"IC50 ([1]; read-out: Karpas299 IC50, Table 28, CPT free drugs, anaplastic large cell lymphoma cells Karpas299, 96 h, CellTiter-Glo): 4 nM; IC50 ([2]; read-out: MDAMB231 IC50, Table 28, CPT free drugs, breast cancer cells MDA-MB-231, 96 h, CellTiter-Glo): 7 nM; IC50 ([4]; read-out: L540cy IC50, Table 28, CPT free drugs, Hodgkin's lymphoma cells L540cy, CellTiter-Glo): 4 nM; IC50 ([5]; LS174T, read-out: Ls174T IC50, Table 28, CPT free drugs, Ls174T cells, CellTiter-Glo): 21 nM; IC50 ([6]; read-out: DEL IC50, Table 28, CPT free drugs, anaplastic large cell lymphoma cells DEL, CellTiter-Glo): 1 nM; IC50 ([7]; read-out: MOLM-13 IC50, Table 28, CPT free drugs, acute myeloid leukemia cells MOLM-13, 96 h, CellTiter-Glo): 4 nM; IC50 ([8]; read-out: BxPC3 IC50, Table 28, CPT free drugs, pancreatic cancer cells BxPC3, 96 h, CellTiter-Glo): 8 nM; IC50 ([9]; read-out: 786-O IC50, Table 28, CPT free drugs, renal carcinoma cells 786-O, 96 h, CellTiter-Glo): 5 nM; IC50 ([10]; read-out: SU-DHL-4 IC50, Table 28, CPT free drugs, B-lymphocyte cancer cells SU-DHL4, 96 h, CellTiter-Glo): 2 nM; IC50 ([11]; read-out: DELBVR IC50, Table 28, CPT free drugs, anaplastic large cell lymphoma cells DELBVR, CellTiter-Glo): 3 nM"
CC[C@@]1(O)C(=O)OCc2c1cc1n(c2=O)Cc2c-1nc1cc(F)c(C)c(C3=CCOC3)c1c2CN [Compound 6d],–,–,–,–,–,–,–,–,–,–,–,–,"IC50 [1, 13]: 12 nM; IC50 [2, 14]: 21 nM; IC50 ([3]; Table 28, CPT free drugs, non-small-cell lung cancer cells Calu1, 96 h, CellTiter-Glo): 43 nM; IC50 [4, 15]: 11 nM; IC50 [5, 16]: 31 nM; IC50 [6, 17]: 3 nM; IC50 [7, 18]: 6 nM; IC50 [8, 19]: 15 nM; IC50 [9, 20]: 23 nM; IC50 [10, 21]: 4 nM; IC50 [11, 22]: 12 nM; IC50 [12, 23]: 13 nM"
CC[C@@]1(O)C(=O)OCc2c1cc1n(c2=O)Cc2c-1nc1cc(F)c(C)c(-c3ccc(CO)s3)c1c2CN [Compound 6e],155 nM,–,–,–,–,–,–,–,–,–,–,–,"IC50 [1, 13]: 31 nM; IC50 [2, 14]: 57 nM; IC50 [4, 15]: 18 nM; IC50 [5, 16]: 17 nM; IC50 [6, 17]: 4 nM; IC50 [7, 18]: 17 nM; IC50 [8, 19]: 65 nM; IC50 [9, 20]: 29 nM; IC50 [10, 21]: 7 nM; IC50 [11, 22]: 4 nM; IC50 [12, 23]: 11 nM"
CC[C@@]1(O)C(=O)OCc2c1cc1n(c2=O)Cc2c-1nc1cc3c(cc1c2CN(C)C)OCO3 [Compound 7ae],555 nM,11 nM,42 nM,164 nM,20 nM,46 nM,8 nM,165 nM,48 nM,39 nM,23 nM,14 nM,–
CC[C@@]1(O)C(=O)OCc2c1cc1n(c2=O)Cc2c-1nc1cc3c(cc1c2CNCCCS(C)(=O)=O)OCO3 [Compound 7c],91 nM,2 nM,5 nM,31 nM,2 nM,4 nM,1 nM,4 nM,5 nM,5 nM,3 nM,2 nM,–
CC[C@@]1(O)C(=O)OCc2c1cc1n(c2=O)Cc2c-1nc1cc3c(cc1c2CNCCS(N)(=O)=O)OCO3 [Compound 7d],1000 nM,10 nM,39 nM,195 nM,16 nM,18 nM,8 nM,61 nM,38 nM,37 nM,20 nM,13 nM,–
CC[C@@]1(O)C(=O)OCc2c1cc1n(c2=O)Cc2c-1nc1cc3c(cc1c2CNCCCS(N)(=O)=O)OCO3 [Compound 7e],503 nM,5 nM,27 nM,124 nM,13 nM,17 nM,8 nM,257 nM,21 nM,25 nM,16 nM,14 nM,–
CC[C@@]1(O)C(=O)OCc2c1cc1n(c2=O)Cc2c-1nc1cc3c(cc1c2CNCC(O)CN1CCCCC1)OCO3 (stereo partly drawn) [Compound 7g],486 nM,8 nM,29 nM,116 nM,14 nM,18 nM,8 nM,56 nM,29 nM,33 nM,18 nM,14 nM,–
CC[C@@]1(O)C(=O)OCc2c1cc1n(c2=O)Cc2c-1nc1cc3c(cc1c2CNCCCO)OCO3 [Compound 7o],839 nM,16 nM,42 nM,275 nM,26 nM,25 nM,10 nM,115 nM,47 nM,52 nM,27 nM,19 nM,–
CC[C@@]1(O)C(=O)OCc2c1cc1n(c2=O)Cc2c-1nc1cc3c(cc1c2CNC1CCN(C(=O)OC(C)(C)C)CC1)OCO3 [Compound 7q],–,–,–,–,–,–,–,–,–,–,–,–,"IC50 ([1]; camptothecin free drug, 96 h, read-out: Karpas299 IC50): 26 nM; IC50 ([2]; camptothecin free drug, 96 h, read-out: MDAMB231 IC50): 131 nM; IC50 ([3]; camptothecin free drug, 96 h): 1000 nM; IC50 ([4]; camptothecin free drug, read-out: L540cy IC50): 15 nM; IC50 ([5]; LS174T, camptothecin free drug, read-out: Ls174T IC50): 24 nM; IC50 ([6]; camptothecin free drug, read-out: DEL IC50): 6 nM; IC50 ([7]; camptothecin free drug, 96 h, read-out: MOLM-13 IC50): 33 nM; IC50 ([8]; camptothecin free drug, 96 h, read-out: BxPC3 IC50): 28 nM; IC50 ([9]; camptothecin free drug, 96 h, read-out: 786-O IC50): 26 nM; IC50 ([10]; camptothecin free drug, 96 h, read-out: SU-DHL-4 IC50): 17 nM; IC50 ([11]; camptothecin free drug, read-out: DELBVR IC50): 13 nM; IC50 ([12]; camptothecin free drug, 96 h): 7 nM"
CC[C@@]1(O)C(=O)OCc2c1cc1n(c2=O)Cc2c-1nc1cc3c(cc1c2CNCC(O)CO)OCO3 (stereo partly drawn) [Compound 7x],> 1000 nM,18 nM,54 nM,523 nM,32 nM,> 1000 nM,16 nM,574 nM,79 nM,88 nM,41 nM,20 nM,–
